Laboratory results reported in PubChem BioAssay AID274 (DTP/NCI, 2004).
Several values for one entry are separate records, joined by “and”; a condition that tells them apart may be missing. Equal entries are not always repeated. Inconclusive results and toxic doses are left out. The calls were made as follows: active = survival T/C of 150% or more; inactive = T/C below 125% in these data. Numbered stars: 1 amine (or outer) side, 2 acyl side, 3 side chain; on linkers, the order of the positions; unused ones are H or OH. Square brackets hold non-standard residues; d marks the D form. Peptide text beside a SMILES is read from it. * marks the point of attachment. X2 = CCC(=O)CC1CC(C)CC(C(=O)[*:2])N1[*:1]; X1 = CCCCCCCCC(C)C(=O)*; Aib = CC(C)(N)C(=O)O; X3 = CC(CN(C)CCO)N*

System: BDF1 mice, Lewis lung carcinoma iv, survival T/C
Experiment: NCI In Vivo Anticancer Drug Screen. Data for tumor model Lewis Lung Carcinoma (intravenous) in B6D2F1 (BDF1) mice
Settings: endpoint: median survival time, higher = longer survival
Procedure: The antitumor activity of compounds was measured in mice bearing transplantable tumors. Survival or tumor size were measured and the results are expressed as the measurement made in the treated group (T) divided by the measurement made in the vehicle treated control group (C). The tumor model used in this assay is Lewis Lung Carcinoma (intravenous) in B6D2F1 (BDF1) mice

[1] = dose: 25.0 mg/kg/injection, schedule: Q01DX009 (ip), vehicle: saline
[2] = dose: 50.0 mg/kg/injection, schedule: Q01DX009 (ip), vehicle: saline
[3] = dose: 100.0 mg/kg/injection, schedule: Q01DX009 (ip), vehicle: saline
[4] = dose: 1.5 mg/kg/injection, schedule: Q01DX009 (ip), vehicle: saline
[5] = dose: 3.0 mg/kg/injection, schedule: Q01DX009 (ip), vehicle: saline
[6] = dose: 0.75 mg/kg/injection, schedule: Q01DX009 (ip), vehicle: Klucel (hydroxypropylcellulose) (HPC)
[7] = dose: 1.5 mg/kg/injection, schedule: Q01DX009 (ip), vehicle: Klucel (hydroxypropylcellulose) (HPC)
[8] = dose: 100.0 mg/kg/injection, schedule: Q01DX009 (ip), vehicle: Klucel (hydroxypropylcellulose) (HPC)
[9] = dose: 6.25 mg/kg/injection, schedule: Q01DX009 (ip), vehicle: saline with Tween-80
[10] = dose: 12.5 mg/kg/injection, schedule: Q01DX009 (ip), vehicle: Klucel (hydroxypropylcellulose) (HPC)
[11] = dose: 12.5 mg/kg/injection, schedule: Q01DX009 (ip), vehicle: saline with Tween-80
[12] = dose: 25.0 mg/kg/injection, schedule: Q01DX009 (ip), vehicle: Klucel (hydroxypropylcellulose) (HPC)
[13] = dose: 25.0 mg/kg/injection, schedule: Q01DX009 (ip), vehicle: saline with Tween-80
[14] = dose: 50.0 mg/kg/injection, schedule: Q01DX009 (ip), vehicle: Klucel (hydroxypropylcellulose) (HPC)
[15] = dose: 50.0 mg/kg/injection, schedule: Q01DX009 (ip), vehicle: saline with Tween-80
[16] = dose: 200.0 mg/kg/injection, schedule: Q01DX009 (ip), vehicle: Klucel (hydroxypropylcellulose) (HPC)

Measured: T/C

[Cl][Hg][Cl]
inactive: dose: 0.2 mg/kg/injection, schedule: Q01DX009 (ip), vehicle: saline 95 % of control | dose: 0.4 mg/kg/injection, schedule: Q01DX009 (ip), vehicle: saline 99 % of control | dose: 0.78 mg/kg/injection, schedule: Q01DX009 (ip), vehicle: saline 93 % of control | dose: 1.56 mg/kg/injection, schedule: Q01DX009 (ip), vehicle: saline 93 % of control

CN(C)[C@@H]1C(=O)C(C(N)=O)=C(O)[C@@]2(O)C(=O)C3=C(O)c4c(O)ccc(Cl)c4[C@@](C)(O)[C@H]3C[C@@H]12
inactive: dose: 12.5 mg/kg/injection, schedule: Q01DX009 (ip), vehicle: saline 111 % of control | [1] 101 % of control | [2] 99 % of control | [3] 103 % of control | dose: 200.0 mg/kg/injection, schedule: Q01DX009 (ip), vehicle: saline 107 % of control

CC(C)([NH-])CO.CC(C)([NH-])CO.[Cl][Cd][Cl]
inactive: dose: 0.63 mg/kg/injection, schedule: Q01DX009 (ip), vehicle: saline with Tween-80 97 % of control | dose: 1.25 mg/kg/injection, schedule: Q01DX009 (ip), vehicle: saline with Tween-80 88 % of control | dose: 2.5 mg/kg/injection, schedule: Q01DX009 (ip), vehicle: saline with Tween-80 99 % of control

O=C(NCCCN1CC1)C(=O)NCCCN1CC1
inactive: dose: 0.75 mg/kg/injection, schedule: Q01DX009 (ip), vehicle: saline 110 % of control | [4] 114 % of control | [5] 120 % of control

CC(=O)OCC1OC(OC(C)=O)C(NC(=O)N(CCCl)N=O)C(OC(C)=O)C1OC(C)=O (stereo not given)
inactive: [6] 105 % of control | [7] 105 % of control | dose: 3.0 mg/kg/injection, schedule: Q01DX009 (ip), vehicle: Klucel (hydroxypropylcellulose) (HPC) 110 % of control | dose: 6.0 mg/kg/injection, schedule: Q01DX009 (ip), vehicle: Klucel (hydroxypropylcellulose) (HPC) 110 % of control

CCC1(O)CC2CN(CCc3c([nH]c4ccccc34)C(C(=O)OC)(c3cc4c(cc3OC)N(C)C3C(O)(C(=O)NCCO)C(O)C5(CC)C=CCN6CCC43C65)C2)C1 (stereo not given)
inactive: dose: 0.6 mg/kg/injection, schedule: Q04DX003 (ip), vehicle: saline 96 % of control | dose: 1.0 mg/kg/injection, schedule: Q04DX003 (ip), vehicle: saline 101 % of control | dose: 1.67 mg/kg/injection, schedule: Q04DX003 (ip), vehicle: saline 101 % of control | dose: 216.0 micrograms/kg/injection, schedule: Q01DX009 (ip), vehicle: saline 111 % of control | dose: 360.0 micrograms/kg/injection, schedule: Q01DX009 (ip), vehicle: saline 111 % of control

C=CCNc1ccc(C)cc1
inactive: [8] 86 % of control

CCC1OCC(C(Cl)CCl)O1 (stereo not given)
inactive: dose: 3.12 mg/kg/injection, schedule: Q01DX009 (ip), vehicle: saline with Tween-80 103 % of control | [9] 97 % of control | [10] 97 % of control | [11] 108 % of control | [12] 98 % of control | [13] 109 % of control | [14] 97 % of control | [15] 94 % of control | [8] 96 % of control | dose: 100.0 mg/kg/injection, schedule: Q01DX009 (ip), vehicle: saline with Tween-80 109 % of control | [16] 97 % of control

COc1ccc2[nH]c3ccc4cc[n+](CCN5CCC(C6CCN(CC[n+]7ccc8ccc9[nH]c%10ccc(OC)cc%10c9c8c7)CC6)CC5)cc4c3c2c1
inactive: [10] 98 % of control | [12] 114 % of control

O=C(CCN1CC1)OCCOC(=O)CCN1CC1
inactive: [4] 111 % of control | [5] 107 % of control | dose: 6.0 mg/kg/injection, schedule: Q01DX009 (ip), vehicle: saline 99 % of control | dose: 24.0 mg/kg/injection, schedule: Q01DX009 (ip), vehicle: saline 107 % of control

O=S(=O)(c1ccc(NC(C(O)C(O)C(O)C(O)CO)S(=O)(=O)O)cc1)c1ccc(NC(C(O)C(O)C(O)C(O)CO)S(=O)(=O)O)cc1 (stereo not given)
inactive: dose: 72.0 mg/kg/injection, schedule: Q01DX007 (ip), vehicle: saline 90 % of control | dose: 102.9 mg/kg/injection, schedule: Q01DX007 (ip), vehicle: saline 95 % of control | dose: 147.0 mg/kg/injection, schedule: Q01DX007 (ip), vehicle: saline 86 % of control | dose: 210.0 mg/kg/injection, schedule: Q01DX007 (ip), vehicle: saline 96 % of control | dose: 300.0 mg/kg/injection, schedule: Q01DX007 (ip), vehicle: saline 94 % of control

COC(=O)c1[nH]c(=O)[nH]c(=O)c1F
inactive: [9] 106 % of control | [11] 115 % of control | [13] 98 % of control

CN=C(N)N/N=C(\c1ccccc1)c1ccc(Br)cc1
inactive: dose: 1.5 mg/kg/injection, schedule: Q01DX009 (ip), vehicle: saline with Tween-80 95 % of control | dose: 3.0 mg/kg/injection, schedule: Q01DX009 (ip), vehicle: saline with Tween-80 98 % of control | [9] 99 % of control | [11] 105 % of control

CC1CCC(n2cnc3c(Cl)ncnc32)O1 (stereo not given)
inactive: dose: 12.0 mg/kg/injection, schedule: Q01DX009 (ip), vehicle: Klucel (hydroxypropylcellulose) (HPC) 100 % of control | [12] 109 % of control | [14] 98 % of control | [8] 104 % of control | [16] 96 % of control

NC(=O)C(F)C(N)C(=O)O (stereo not given)
inactive: [1] 99 % of control | [2] 100 % of control | [3] 103 % of control

CCCCCCCCC(C)C(=O)N1CCCC1C(=O)N1C(CC(=O)CC)CC(C)CC1C(=O)NC(C)C(=O)NC(C)(C)C(=O)NC(C)(C)C(=O)NC(C(=O)NC(C)C(=O)NC(C)(C)C(=O)NC(C)(C)C(=O)NC(C)CN(C)CCO)C(C)CC (stereo not given) (X1-P[X2]A[Aib][Aib]IA[Aib][Aib]-X3; configuration not given here)
inactive: dose: 0.31 mg/kg/injection, schedule: Q01DX009 (ip), vehicle: Klucel (hydroxypropylcellulose) (HPC) 105 % of control | dose: 0.62 mg/kg/injection, schedule: Q01DX009 (ip), vehicle: Klucel (hydroxypropylcellulose) (HPC) 97 % of control | dose: 1.25 mg/kg/injection, schedule: Q01DX009 (ip), vehicle: Klucel (hydroxypropylcellulose) (HPC) 99 % of control | dose: 2.5 mg/kg/injection, schedule: Q01DX009 (ip), vehicle: Klucel (hydroxypropylcellulose) (HPC) 104 % of control | dose: 5.0 mg/kg/injection, schedule: Q01DX009 (ip), vehicle: Klucel (hydroxypropylcellulose) (HPC) 104 % of control

C=C1C(=O)OC2C3OC(C)(CCC(O)C3COC(C)=O)CC(OC(=O)/C(=C/C)COC(C)=O)C12 (stereo not given)
inactive: dose: 0.75 mg/kg/injection, schedule: Q01DX009 (ip), vehicle: suspension in saline 112 % of control | dose: 1.5 mg/kg/injection, schedule: Q01DX009 (ip), vehicle: suspension in saline 103 % of control | dose: 3.0 mg/kg/injection, schedule: Q01DX009 (ip), vehicle: suspension in saline 89 % of control

CCC(C(=O)O)C(=O)O.[NH-]CC1CCCC[N-]1.[Pt+2]
inactive: [1] 98 % of control and 100 % of control | [2] 100 % of control

CC(=O)O[C@@H]1CO[C@H]2O[C@H]3[C@@H](C(C=O)=C[C@H](O)[C@@H]4C5=C(C(C)C)CC[C@]5(C)CC[C@@]34C)[C@@]2(O)C1=O
inactive: [6] 96 % of control | [7] 107 % of control

CC(C)[NH-].CC(C)[NH-].O.O.[Cl][Pt+2][Cl]
inactive: dose: 3.13 mg/kg/injection, schedule: Q01DX009 (ip), vehicle: dextrose 100 % of control | dose: 6.25 mg/kg/injection, schedule: Q01DX009 (ip), vehicle: dextrose 102 % of control

C[CH2][Ge]([CH2]C)[CH2]C.C[CH2][Ge]([CH2]C)[CH2]C.C[CH2][Ge]([CH2]C)[O][Ge]([CH2]C)[CH2]C
inactive: [9] 97 % of control | [11] 96 % of control | [13] 103 % of control | [15] 100 % of control
